Patent US10844052B2, “LLS compounds for treatment of cancer” (THE REGENTS OF THE UNIVERSITY OF CALIFORNIA, priority 2016, dated 2020)

Assays:
SKOV3 = assay: Anti-cancer activity against ovarian cancer cells SKOV3 (cell killing in solution / in vitro cell proliferation); assay type: cell-based
Description: (§1) Biotinylated LLS2 was synthesized in solution and loaded it onto a streptavidin-coated plate. The biotinylated LLS2 immobilized on the plate killed approximately 21% of SKOV3 ovarian cancer cells at 100 μM loading, 16% at 50 μM and 14% at 25 μM (FIG. 4). The killing effect of the LLS2 compound was also tested in solution. […] In addition, LLS2 can kill pancreatic cancer cell line XPA3, prostate cancer cell line PC3, colon cancer cell line HT29, breast cancer cell line MCF7 and lung cancer cell line A549 (FIG. 4).

PC3 = assay: In vitro cell proliferation / killing assay on PC3 prostate cancer cells; assay type: cell-based; conditions: prostate cancer cell line PC3
Description: as §1

XPA3 = assay: Cell killing by soluble LLS2, pancreatic cancer cell line XPA3; assay type: cell-based
Description: as §1

HT29 = assay: Cell killing by soluble LLS2, colon cancer cell line HT29; assay type: cell-based
Description: as §1

MCF7 = assay: Cell killing by soluble LLS2, breast cancer cell line MCF7; assay type: cell-based
Description: as §1

A549 = assay: Cell killing by soluble LLS2, lung cancer cell line A549; assay type: cell-based
Description: as §1

SKOV3 cells = assay: In vitro combination of LLS2 with paclitaxel on SKOV3 cells; assay type: cell-based
Description: C.I.<0.9 indicates synergism, C.I.=0.9-1.10 indicates additive interaction, and C.I.>1.1 indicates antagonism.
The synergistic effects of LLS2 with current chemotherapeutic drugs including docetaxel, paclitaxel, 5-Fu, oxaliplatin, carboplatin, doxorubicin and gemcitabine were examined in vitro.

SKOV3 xenograft tumors = assay: SKOV3 xenograft in nude mice, LLS2 alone or with paclitaxel; assay type: in vivo
Description: Briefly, 2.5×10^6 SKOV3 cells were subcutaneously injected to the right side of the dorsal flank of the female congenital athymic BALB/c nude mice. The tumors were allowed to grow to about 100 mm^3.
Then, mice were randomly divided into control and treatment groups (n=5). Mice were given a daily I.V. administration for 5 successive days.
SKOV3 ovarian cancer cells were subcutaneously injected on the dorsal flanks of mice.

galectin-1 = target: T1, galectin-1 (Homo sapiens, UniProt P09382); assay: Pull-down with biotinylated LLS2, LC MS/MS and anti-galectin-1 immunoblot; assay type: binding; conditions: biotinylated LLS2, cell membrane protein preparation
T1 construct: endogenous in cells
T1 sequence (P09382 whole entry): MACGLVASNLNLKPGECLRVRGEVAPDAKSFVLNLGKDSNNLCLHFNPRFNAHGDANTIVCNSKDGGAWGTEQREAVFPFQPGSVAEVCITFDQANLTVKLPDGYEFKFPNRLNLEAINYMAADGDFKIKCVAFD
Description: LLS2 was biotinylated, incubated with a cell membrane protein preparation, and bound proteins were pulled down with immobilized streptavidin resin. The bound proteins were eluted and subjected to identification by LC MS/MS. The MS result identified galectin-1 as the putative target protein of LLS2 (FIG. 8a). The identity of galectin-1 as the target protein of LLS2 was confirmed by immunoblot analysis of proteins eluted from (i) blank streptavidin-beads, (ii) biotin-LLS2/streptavidin beads, and (iii) biotinylated unrelated small molecule/streptavidin beads, using anti-galectin-1 antibody as the western blot probe (FIG. 8b).

GFP-H-Ras(12V) = assay: H-Ras localization (real time confocal) and membrane-associated H-Ras immunoblot; assay type: cell-based
Text: (§2) (b) Once activated by EGF, H-Ras will be partially trafficked to the plasma membrane leading to the activation of Erk pathway. […] (c) Quantification of membrane associated H-Ras (active form) by immunoblot analysis after treatment with buffer (−) or LLS2 (+), showing that LLS2 was able to lower the level of membrane-associated H-Ras. (d) LLS2 also miscolocalized the EGF-stimulated K-Ras(G12V) but not N-Ras(Q61D).
(§3) LLS2 treatment also miscolocalizes the EGF-stimulated K-Ras(G12V), whereas the localization of EGF-stimulated N-Ras(Q61D) is not changed (FIG. 9d). […] Without being bound to any particular theory, this implies that LLS2 induces cell death through suppression of the RAS-ERK pathway.

K-Ras(G12V) = K-Ras(G12V) localization and Ras activity assay; assay type: cell-based
Text: as §2, §3

N-Ras(Q61D) = N-Ras(Q61D) localization; assay type: cell-based
Text: as §2, §3

[1] = system: phospho-MEK and phospho-ERK; assay: Expression level of phospho-MEK and phospho-ERK after LLS2; assay type: cell-based; conditions: treatment for 2 hours
Text: as §2, §3

[2] = system: Human umbilical vascular endothelial cells (HUVECs); assay: HUVEC tube-formation assay on Matrigel-coated plates; assay type: cell-based
Description: Human umbilical vascular endothelial cells (HUVECs) we used for tube-formation assays on Matrigel-coated plates as shown in FIG. 10. The expression level of secreted gal-1 in 6 different cancer cell lines was determined using ELISA assay.

[3] = system: prostate cancer PC3 cancer cells
[4] = Homo sapiens, SK-OV-3, ovarian cancer cells SKOV3

Structure (SMILES): CC(=O)OCCN(CCOC(C)=O)c1ccc(-c2nc3cc(C(CC(N)=O)NC(=O)[C@@H](N)Cc4ccc(Cl)c(Cl)c4)ccc3n2Cc2ccc(F)c(F)c2)cc1 (stereo partly drawn) [LLS2, ((4-(5-(3-amino-1-((S)-2-amino-3-(3,4-dichlorophenyl)propanamido)-3-oxopropyl)-1-(3,4-difluorobenzyl)-1H-benzo[d]imidazol-2-yl)phenyl)azanediyl)bis(ethane-2,1-diyl) Diacetate]
- IC50 (SKOV3; [4]): 15.7 µM
- IC50 (SKOV3; ovarian cancer cells SKOV3): 18.7 µM
- cell killing (PC3): can kill
- cell killing (XPA3): can kill
- cell killing (HT29): can kill
- cell killing (MCF7): can kill
- cell killing (A549): can kill
- anti-proliferation effect of combined treatment with paclitaxel (SKOV3 cells; SKOV3, LLS2 + paclitaxel): much stronger anti-proliferation effects
- apoptosis after combined LLS2/paclitaxel treatment (SKOV3 cells; SKOV3 cells, 24 hours): Increased apoptosis
- tolerability (body weight) (SKOV3 xenograft tumors; LLS2/paclitaxel combination regimen, nude mice): tolerable and without significant side effects
- tumor size and weight (SKOV3 xenograft tumors; LLS2 alone, daily I.V. for 5 successive days, SKOV3 xenograft): smaller tumor size
- tumor growth (SKOV3 xenograft tumors; combination LLS2/paclitaxel compared to either alone, SKOV3 xenograft): significant suppression of tumor growth
- target protein identified by pull-down / immunoblot (galectin-1): target protein of LLS2 was indeed galectin-1
- membrane-localized H-Ras (GFP-H-Ras(12V); 25 μM, 15 mins treatment, EGF-activated): loss of membrane-localized H-Ras
- localization of EGF-stimulated GFP-H-Ras(12V) (GFP-H-Ras(12V); 25 μM, 30 min): mis-localizes to intracellular compartments
- membrane-associated H-Ras (GFP-H-Ras(12V); LLS2-treated vs non-treated MDCK cells): significant down-expression of H-Ras
- localization of EGF-stimulated K-Ras(G12V) (K-Ras(G12V)): miscolocalizes
- EGF-stimulated levels of K-Ras-GTP (K-Ras(G12V); Ras activity assays): decreases
- localization of EGF-stimulated N-Ras(Q61D) (N-Ras(Q61D)): not changed
- expression level of phospho-MEK and phospho-ERK [1]: down-regulated
- angiogenic effect of added gal-1 [2]: inhibited
- tube-formation activity of PC3 conditioned medium ([2]; 10 μM): neutralized
- anti-proliferation effect of combined treatment with paclitaxel ([3]; PC3, LLS2 + paclitaxel): much stronger anti-proliferation effects

Structure (SMILES): CC(=O)OCCN(CCOC(C)=O)c1ccc(-c2nc3cc(C(CC(N)=O)N(Cc4ccc(Cl)c(Cl)c4)Cc4ccc(Cl)c(Cl)c4)ccc3n2CC23CC4CC(CC(C4)C2)C3)cc1 (centres unmarked) [LLS25, ((4-(1-(((1s,3s)-adamantan-1-yl)methyl)-5-(3-amino-1-(bis(3,4-dichlorobenzyl)amino)-3-oxopropyl)-1H-benzo[d]imidazol-2-yl)phenyl)azanediyl)bis(ethane-2,1-diyl) Diacetate]
- IC50 (SKOV3; [4]): 20.7 µM

Structure (SMILES): CC(=O)OCCN(CCOC(C)=O)c1ccc(-c2nc3cc(C(CC(N)=O)NCc4ccc(Cl)c(Cl)c4)ccc3n2CC23CC4CC(CC(C4)C2)C3)cc1 (centres unmarked) [LLS26, ((4-(1-(((1s,3s)-adamantan-1-yl)methyl)-5-(3-amino-1-((3,4-dichlorobenzyl)amino)-3-oxopropyl)-1H-benzo[d]imidazol-2-yl)phenyl)azanediyl)bis(ethane-2,1-diyl) Diacetate]
- IC50 (SKOV3; [4]): 10.5 µM

Structure (SMILES): NC(=O)CC(NCc1ccc(Cl)c(Cl)c1)c1ccc2c(c1)nc(-c1ccc(N(CCO)CCO)cc1)n2Cc1ccc(C(F)(F)F)c(F)c1 (centres unmarked) [LLS27, 3-(2-(4-(bis(2-hydroxyethyl)amino)phenyl)-1-(3-fluoro-4-(trifluoromethyl)benzyl)-1H-benzo[d]imidazol-5-yl)-3-((3,4-dichlorobenzyl)amino)propanamide]
- IC50 (SKOV3; [4]): > 50 µM

Structure (SMILES): NC(=O)CC(NCc1ccc(Cl)c(Cl)c1)c1ccc2c(c1)nc(-c1ccc(N(CCO)CCO)cc1)n2CC12CC3CC(CC(C3)C1)C2 (centres unmarked) [LLS28, 3-(1-(((1s,3s)-adamantan-1-yl)methyl)-2-(4-(bis(2-hydroxyethyl)amino)phenyl)-1H-benzo[d]imidazol-5-yl)-3-((3,4-dichlorobenzyl)amino)propanamide]
- IC50 (SKOV3; [4]): 16.1 µM

Structure (SMILES): NC(=O)CC(c1ccc2c(c1)nc(-c1ccc(N(CCO)CCO)cc1)n2CC12CC3CC(CC(C3)C1)C2)N(Cc1ccc(Cl)c(Cl)c1)Cc1ccc(Cl)c(Cl)c1 (centres unmarked) [LLS29, 3-(1-(((1s,3s)-adamantan-1-yl)methyl)-2-(4-(bis(2-hydroxyethyl)amino)phenyl)-1H-benzo[d]imidazol-5-yl)-3-(bis(3,4-dichlorobenzyl)amino)propanamide]
- IC50 (SKOV3; [4]): 25.5 µM

Structure (SMILES): NC(=O)CC(NCc1ccc(Cl)c(Cl)c1)c1ccc2c(c1)nc(-c1ccc(N(CCO)CCO)cc1)n2Cc1ccc(F)c(Cl)c1 (centres unmarked) [LLS31, 3-(2-(4-(bis(2-hydroxyethyl)amino)phenyl)-1-(3-chloro-4-fluorobenzyl)-1H-benzo[d]imidazol-5-yl)-3-((3,4-dichlorobenzyl)amino)propanamide]
- IC50 (SKOV3; [4]): 16.4 µM

Structure (SMILES): CC(=O)OCCN(CCO)c1ccc(-c2nc3cc(C(CC(N)=O)NCc4ccc(Cl)c(Cl)c4)ccc3n2CC23CC4CC(CC(C4)C2)C3)cc1 (centres unmarked) [LLS32, 2-((4-(1-(((1s,3s)-adamantan-1-yl)methyl)-5-(3-amino-1-((3,4-dichlorobenzyl)amino)-3-oxopropyl)-1H-benzo[d]imidazol-2-yl)phenyl)(2-hydroxyethyl)amino)ethyl Acetate]
- IC50 (SKOV3; [4]): 10.4 µM

Structure (SMILES): CC(=O)OCCN(CCO)c1ccc(-c2nc3cc(C(CC(N)=O)NCc4ccc(Cl)c(Cl)c4)ccc3n2Cc2ccc(Cl)c(Cl)c2)cc1 (centres unmarked) [LLS33, 2-((4-(5-(3-amino-1-((3,4-dichlorobenzyl)amino)-3-oxopropyl)-1-(3,4-dichlorobenzyl)-1H-benzo[d]imidazol-2-yl)phenyl)(2-hydroxyethyl)amino)ethyl Acetate]
- IC50 (SKOV3; [4]): 10 µM

Structure (SMILES): CC(=O)OCCN(CCO)c1ccc(-c2nc3cc(C(CC(N)=O)NCc4ccc(Cl)c(Cl)c4)ccc3n2Cc2ccc(F)c(Cl)c2)cc1 (centres unmarked) [LLS34, 2-((4-(5-(3-amino-1-((3,4-dichlorobenzyl)amino)-3-oxopropyl)-1-(3-chloro-4-fluorobenzyl)-1H-benzo[d]imidazol-2-yl)phenyl)(2-hydroxyethyl)amino)ethyl Acetate]
- IC50 (SKOV3; [4]): 8.9 µM

Structure (SMILES): CC(=O)OCCN(CCO)c1ccc(-c2nc3cc(C(CC(N)=O)NCc4ccc(Cl)c(Cl)c4)ccc3n2Cc2ccc(OC(F)(F)F)cc2)cc1 (centres unmarked) [LLS35, 2-((4-(5-(3-amino-1-((3,4-dichlorobenzyl)amino)-3-oxopropyl)-1-(4-(trifluoromethoxy)benzyl)-1H-benzo[d]imidazol-2-yl)phenyl)(2-hydroxyethyl)amino)ethyl Acetate]
- IC50 (SKOV3; [4]): 10.8 µM

Structure (SMILES): NC(=O)CC(NCc1ccc(Cl)c(Cl)c1)c1ccc2c(c1)nc(-c1ccc(N(CCO)CCO)cc1)n2Cc1ccc(OC(F)(F)F)cc1 (centres unmarked) [LLS36, 3-(2-(4-(bis(2-hydroxyethyl)amino)phenyl)-1-(4-(trifluoromethoxy)benzyl)-1H-benzo[d]imidazol-5-yl)-3-((3,4-dichlorobenzyl)amino)propanamide]
- IC50 (SKOV3; [4]): > 50 µM

Structure (SMILES): CC(=O)OCCN(CCOC(C)=O)c1ccc(CNC(CC(N)=O)c2ccc3c(c2)nc(-c2ccc(N(CCOC(C)=O)CCOC(C)=O)cc2)n3Cc2ccc(Cl)c(Cl)c2)cc1 (centres unmarked) [LLS37, ((4-(5-(3-amino-1-((4-(bis(2-acetoxyethyl)amino)benzyl)amino)-3-oxopropyl)-1-(3,4-dichlorobenzyl)-1H-benzo[d]imidazol-2-yl)phenyl)azanediyl)bis(ethane-2,1-diyl) Diacetate]
- IC50 (SKOV3; [4]): > 50 µM

Structure (SMILES): NC(=O)CC(NCc1ccc(N(CCO)CCO)cc1)c1ccc2c(c1)nc(-c1ccc(N(CCO)CCO)cc1)n2Cc1ccc(Cl)c(Cl)c1 (centres unmarked) [LLS38, 3-((4-(bis(2-hydroxyethyl)amino)benzyl)amino)-3-(2-(4-(bis(2-hydroxyethyl)amino)phenyl)-1-(3,4-dichlorobenzyl)-1H-benzo[d]imidazol-5-yl)propanamide]
- IC50 (SKOV3; [4]): > 50 µM

Structure (SMILES): CC(=O)O[C@H]1C(=O)[C@@]2(C)[C@H]([C@H](OC(=O)c3ccccc3)[C@]3(O)C[C@H](OC(=O)[C@H](O)[C@@H](NC(=O)c4ccccc4)c4ccccc4)C(C)=C1C3(C)C)[C@]1(OC(C)=O)CO[C@@H]1C[C@@H]2O [Paclitaxel, reference compound]
- cytotoxicity, single agent (SKOV3 cells; SKOV3 cells, at particular concentrations): little effect
- cytotoxicity, single agent [3]: moderate cytotoxicity
